We go through 24 compounds from patent US8461328B2, “Tricyclic heterocyclic compounds, compositions and methods of use thereof” (Genentech, Inc., priority 2010, dated 2013).

What all share (assay type): biochemical
The target of one assay is T1, JAK3 (Homo sapiens, UniProt P52333).
T1 construct: made in house; host or cells: SF9 insect cells (baculovirus)
Kind of assay: JAK3 inhibition (Table 4). The note with it: read-out: JAK3 Ki.

The next assay deals with T2, JAK2 (Homo sapiens, UniProt O60674).
T2 construct: made in house; host or cells: SF9 insect cells (baculovirus)
Nature of the assay: JAK2 inhibition (Table 4). The following applies: read-out: JAK2 Ki.

The next assay has as its target T3, JAK1 (Homo sapiens, UniProt P23458).
T3 construct: made in house; host or cells: SF9 insect cells (baculovirus)
Nature of the assay: JAK1 inhibition (Table 4). The following applies: read-out: JAK1 Ki.

For another assay, the target named is T4, TYK2 (Homo sapiens, UniProt P29597).
T4 construct: made in house; host or cells: SF9 insect cells (baculovirus)
T4 sequence (P29597 873-1187): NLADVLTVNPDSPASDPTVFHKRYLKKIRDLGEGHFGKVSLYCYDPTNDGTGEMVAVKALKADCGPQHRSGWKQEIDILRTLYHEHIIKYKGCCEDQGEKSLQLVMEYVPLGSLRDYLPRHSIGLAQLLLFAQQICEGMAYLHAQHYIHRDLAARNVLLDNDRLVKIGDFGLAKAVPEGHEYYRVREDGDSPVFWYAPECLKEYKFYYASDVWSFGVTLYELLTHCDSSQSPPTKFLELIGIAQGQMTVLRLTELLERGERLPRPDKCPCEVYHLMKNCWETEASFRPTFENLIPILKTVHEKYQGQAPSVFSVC
Kind of assay: TYK2 inhibition (Table 4).

T3 sequence (P23458 852-1154): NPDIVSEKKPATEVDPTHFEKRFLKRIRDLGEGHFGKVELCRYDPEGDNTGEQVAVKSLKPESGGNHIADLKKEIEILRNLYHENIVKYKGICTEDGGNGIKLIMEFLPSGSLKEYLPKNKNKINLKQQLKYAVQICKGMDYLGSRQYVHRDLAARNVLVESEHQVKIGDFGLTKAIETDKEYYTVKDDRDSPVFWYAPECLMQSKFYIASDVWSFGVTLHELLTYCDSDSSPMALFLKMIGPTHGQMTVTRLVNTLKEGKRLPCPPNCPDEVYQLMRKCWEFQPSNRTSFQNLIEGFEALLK
T2 sequence (O60674 812-1132): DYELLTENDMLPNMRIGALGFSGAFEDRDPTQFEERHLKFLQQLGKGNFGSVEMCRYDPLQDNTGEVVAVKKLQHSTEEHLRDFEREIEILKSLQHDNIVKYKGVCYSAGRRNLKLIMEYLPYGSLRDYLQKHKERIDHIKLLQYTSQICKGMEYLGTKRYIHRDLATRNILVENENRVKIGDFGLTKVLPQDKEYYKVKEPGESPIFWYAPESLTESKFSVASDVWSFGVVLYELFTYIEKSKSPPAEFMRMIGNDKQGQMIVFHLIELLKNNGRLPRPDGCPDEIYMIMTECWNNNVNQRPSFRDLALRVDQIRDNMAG
T1 sequence (P52333 783-1124): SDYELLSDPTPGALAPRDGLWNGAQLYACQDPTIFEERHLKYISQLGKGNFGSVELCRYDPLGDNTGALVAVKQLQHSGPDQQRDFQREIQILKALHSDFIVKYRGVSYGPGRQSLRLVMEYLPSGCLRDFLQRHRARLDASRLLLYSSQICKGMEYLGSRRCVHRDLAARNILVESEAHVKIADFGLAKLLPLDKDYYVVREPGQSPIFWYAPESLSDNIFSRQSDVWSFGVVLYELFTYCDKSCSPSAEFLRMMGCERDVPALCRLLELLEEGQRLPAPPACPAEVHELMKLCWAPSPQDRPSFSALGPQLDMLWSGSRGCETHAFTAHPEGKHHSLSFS

Turning to `O=C(Cc1nc2cnc3[nH]ccc3c2n1C1CCN(Cc2cccnc2)CC1)N1CCC(F)(F)CC1` [Example 286, 1-(4,4-Difluoro-piperidin-yl)-2-[1-(1-pyridin-3-ylmethyl-piperidin-4-yl)-1,6-dihydro-1,3,5,6-tetraaza-as-indacen-2-yl]-ethanone], the inhibition constant (Ki) is 6.46 nM on JAK3, 47.8 nM at JAK2, 3.56 nM at JAK1 and 442 nM on TYK2.

As for `CC(C)CNC(=O)Cc1nc2cnc3[nH]ccc3c2n1C1CCCOC1` (racemic) [Example 966, N-Isobutyl-2-[1-(tetrahydro-pyran-3-yl)-1,6-dihydro-1,3,5,6-tetraaza-as-indacen-2-yl]-acetamide], the Ki came out at 196 nM at JAK3, 256 nM on JAK2, 38 nM on JAK1 and 478 nM at TYK2.

For the compound `CN1CCN(S(=O)(=O)NCCc2nc3cnc4[nH]ccc4c3n2C2CCCCC2)CC1` [Example 511, 4-Methyl-piperazine-1-sulfonic acid [2-(1-cyclohexyl-1,6-dihydro-1,3,5,6-tetraaza-as-indacen-2-yl)-ethyl]-amide], the Ki on JAK3 was determined as 174 nM; on JAK2, 48.9 nM; at JAK1 it was 5.3 nM; at TYK2, 30.3 nM.

Regarding `CS(=O)(=O)NCCc1nc2cnc3[nH]ccc3c2n1[C@@H]1CCCOC1` [Example 862, (R)—N-{2-[1-(Tetrahydro-pyran-3-yl)-1,6-dihydro-1,3,5,6-tetraaza-as-indacen-2-yl]-ethyl}-methanesulfonamide], the Ki came out at 445 nM at JAK3, 437 nM at JAK2, 49.5 nM on JAK1 and 994 nM on TYK2.

For the compound `C[C@@H](O)c1nc2cnc3[nH]ccc3c2n1[C@H]1CCN(Cc2cnco2)C[C@H]1F` [Example 704, 1-[1-(3-Fluoro-1-oxazol-5-ylmethyl-piperidin-4-yl)-1,6-dihydro-1,2,3,5,6-tetraaza-as-indacen-2-yl]-ethanol], the Ki is 12.8 nM at JAK3, 56.7 nM on JAK2, 2.45 nM on JAK1 and 138 nM on TYK2.

Consider `N#CCCN1CCC[C@@H](n2cnc3cnc4[nH]ccc4c32)C1` [Example 10, 3-[(R)-3-(6H-1,2,3,5,6-Tetraaza-as-indacen-1-yl)-piperidin-1-yl]-propionitrile], for which the Ki was determined as 21.2 nM at JAK3, 21.7 nM at JAK2, 12.8 nM on JAK1 and 88.5 nM at TYK2.

As for `COC(=O)N1CCC(n2c([C@@H](C)O)nc3cnc4[nH]ccc4c32)CC1` [Example 929, 4-[2-((R)-1-Hydroxy-ethyl)-6H-1,3,5,6-tetraaza-as-indacen-1-yl]-piperidine-1-carboxylic acid methyl ester], the Ki at JAK3 worked out at 185 nM; at JAK2, 578 nM; on JAK1, 106 nM; on TYK2 it was 281 nM.

With `CC(=O)N1CCC(N[C@H]2CC[C@H](n3cnc4cnc5[nH]ccc5c43)CC2)CC1` [Example 555, trans 1-{4-[4-(6H-1,3,5,6-Tetraaza-as-indacen-1-yl)-cyclohexylamino]-piperidin-1-yl}-ethanone], the Ki came to 491 nM on JAK3, 276 nM on JAK2, 33 nM on JAK1 and 302 nM at TYK2.

Turning to `CC1CC(n2cnc3cnc4[nH]ccc4c32)CCN1` (racemic) [Example 230, 1-(2-Methyl-piperidin-4-yl)-1,6-dihydro-1,3,5,6-tetraaza-as-indacene], the Ki at JAK3 came to 424 nM; on JAK2 it was 123 nM; at JAK1, 47.8 nM; at TYK2, 435 nM.

On to `CC(O)c1nc2cnc3[nH]ccc3c2n1C1CCN(Cc2cccc(C#N)c2)CC1` (racemic) [Example 156, Racemic 3-{4-[2-(1-Hydroxy-ethyl)-6H-1,2,3,5,6-tetraaza-as-indacen-1-yl]-piperidin-1-ylmethyl}-benzonitrile], for which the Ki on JAK3 is 84.6 nM; at JAK2, 16.3 nM; at JAK1, 2.13 nM; on TYK2 it was 209 nM.

`CN(CC(F)(F)F)C(=O)NC1CCC(n2nnc3cnc4[nH]ccc4c32)C1` (racemic) [Example 622, Racemic trans 1-Methyl-3-[3-(6H-1,2,3,5,6-pentaaza-as-indacen-1-yl)-cyclopentyl]-1-(2,2,2-trifluoro-ethyl)-urea]: the Ki on JAK3 turned out to be 19.5 nM; on JAK2, 12.4 nM; on JAK1, 9 nM; at TYK2, 233 nM.

With `CC(C)(C)OC(=O)N1CC(CN[C@H]2CC[C@H](n3cnc4cnc5[nH]ccc5c43)CC2)C1` [Example 557, trans 3-{[4-(6H-1,3,5,6-Tetraaza-as-indacen-1-yl)-cyclohexylamino]-methyl}-azetidine-1-carboxylic acid tert-butyl ester], the Ki on JAK3 was determined as 310 nM; on JAK2 it was 136 nM; on JAK1, 21.4 nM; at TYK2, 443 nM.

With `CC(=O)N1CCC[C@@H](n2cnc3cnc4[nH]ccc4c32)C1` [Example 30, 1-[(R)-3-(6H-1,3,5,6-Tetraaza-as-indacen-1-yl)-piperidin-1-yl]ethanone], the Ki at JAK3 came out at 139 nM; at JAK2 it was 42.2 nM; on JAK1, 29.2 nM; on TYK2, 141 nM.

Consider `c1cc2c(ncc3nnn(C4CCNCC4)c32)[nH]1` [Example 231], for which the inhibitory constant (Ki) at JAK3 was 1140 nM; at JAK2 it was 395 nM; on JAK1, 86.6 nM; on TYK2, 1030 nM.

As to `O=C(Cc1nc2cnc3[nH]ccc3c2n1C1CCCOC1)NC1CCCC1` (racemic) [Example 974, N-Cyclopentyl-2-[1-(tetrahydro-pyran-3-yl)-1,6-dihydro-1,3,5,6-tetraaza-as-indacen-2-yl]-acetamide], the Ki was 74.6 nM at JAK3, 110 nM at JAK2, 25.6 nM on JAK1 and 194 nM at TYK2.

As to `Cc1nc2cnc3[nH]ccc3c2n1C1CCN(C(=O)NCC(F)(F)F)CC1` [Example 764, 4-(2-Methyl-6H-1,3,5,6-tetraaza-as-indacen-1-yl)-piperidine-1-carboxylic acid (2,2,2-trifluoro-ethyl)-amide], the Ki at JAK3 was 609 nM; at JAK2, 441 nM; on JAK1, 88.1 nM; at TYK2 it was 859 nM.

`CC(O)c1nc2cnc3[nH]ccc3c2n1C1CC2CCC1O2` (stereo not drawn) [Example 938, 1-[1-(7-Oxa-bicyclo[2.2.1]hept-2-yl)-1,6-dihydro-1,3,5,6-tetraaza-as-indacen-2-yl]-ethanol]: the Ki turned out to be 119 nM at JAK3, 263 nM at JAK2, 88.3 nM at JAK1 and 175 nM on TYK2.

Turning to `N#CCCN1CCC(n2c(CCNC(=O)C3CCC3)nc3cnc4[nH]ccc4c32)CC1` [Example 375, Cyclobutanecarboxylic acid (2-{1-[1-(2-cyano-ethyl)-piperidin-4-yl]-1,6-dihydro-1,3,5,6-tetraaza-as-indacen-2-yl}-ethyl)-amide], the Ki at JAK3 was 59.8 nM; on JAK2, 43 nM; at JAK1 it was 4.11 nM; on TYK2 it was 158 nM.

Regarding `N#CCCN1CCC(n2c(CC3CCCO3)nc3cnc4[nH]ccc4c32)CC1` (stereo not drawn) [Example 813, 3-{4-[2-(Tetrahydro-furan-2-ylmethyl)-6H-1,3,5,6-tetraaza-as-indacen-1-yl]-piperidin-1-yl}-propionitrile], the Ki at JAK3 was 39.9 nM; on JAK2, 43 nM; at JAK1, 21.1 nM; on TYK2, 365 nM.

As for `OC1CCN(Cc2nc3cnc4[nH]ccc4c3n2C2CCCCC2)CC1` [Example 932, 1-(1-Cyclohyl-1,6-dihydro-1,3,5,6-tetraaza-as-indacen-2-ylmethyl)-piperidin-4-ol], the inhibition constant Ki worked out at 1050 nM at JAK3, 579 nM on JAK2, 41 nM at JAK1 and 357 nM on TYK2.

Turning to `CCN1CC[C@@H](n2c(CCNS(=O)(=O)C3CC3)nc3cnc4[nH]ccc4c32)[C@@H](F)C1` [Example 809, Cyclopropanesulfonic acid {2-[1-((3S,4R)-1-ethyl-3-fluoro-piperidin-4-yl)-1,6-dihydro-1,3,5,6-tetraaza-as-indacen-2-yl]-ethyl}-amide], the Ki on JAK3 came to 162 nM; on JAK2, 46.6 nM; on JAK1, 5.67 nM; on TYK2, 381 nM.

As for `Cc1nc2cnc3[nH]ccc3c2n1C1(C)CCN(S(C)(=O)=O)CC1` [Example 580, 1-(1-Methanesulfonyl-4-methyl-piperidin-4-yl)-2-methyl-1,6-dihydro-1,2,3,5,6-tetraaza-as-indacene], the Ki on JAK3 was determined as 58.5 nM; on JAK2, 12.8 nM; on JAK1, 1.45 nM; at TYK2, 41.3 nM.

On to `CC(O)c1nc2cnc3[nH]ccc3c2n1C1CC2CCC1O2` (single isomer, unassigned) [Example 905, (o)-1-[1-(7-Oxa-bicyclo[2.2.1]hept-2-yl)-1,6-dihydro-1,3,5,6-tetraaza-as-indacen-2-yl]-ethanol], for which the Ki amounted to 128 nM on JAK3, 96.4 nM at JAK2, 14.7 nM on JAK1 and 57.1 nM at TYK2.

For `OC1CCCC(n2nnc3cnc4[nH]ccc4c32)C1` (single isomer, unassigned) [Example 553, 3-(6H-1,2,3,5,6-Pentaaza-as-indacen-1-yl)-cyclohexanol], the inhibition constant Ki at JAK3 worked out at 42.5 nM; at JAK2 it was 20.4 nM; at JAK1, 8.59 nM; on TYK2, 33.5 nM.

By Ki is commonly meant a dissociation constant, usually derived from enzyme kinetics or from competition with a known ligand.
